From US10106515B2, “1-(cyclopent-2-en-1-yl)-3-(2-hydroxy-3-(arylsulfonyl)phenyl)urea derivatives as CXCR2 inhibitors” (GLAXOSMITHKLINE INTELLECTUAL PROPERTY DEVELOPMENT LIMITED, priority 2014, dated 2018)
Where a name gives a salt, the structure may show the parent alone.

Target: T1, recombinant human CXCR2 (Homo sapiens, UniProt P25025)
T1 construct: TEV protease site; Gal4-VP16 transcription factor
T1 sequence (P25025 1-360): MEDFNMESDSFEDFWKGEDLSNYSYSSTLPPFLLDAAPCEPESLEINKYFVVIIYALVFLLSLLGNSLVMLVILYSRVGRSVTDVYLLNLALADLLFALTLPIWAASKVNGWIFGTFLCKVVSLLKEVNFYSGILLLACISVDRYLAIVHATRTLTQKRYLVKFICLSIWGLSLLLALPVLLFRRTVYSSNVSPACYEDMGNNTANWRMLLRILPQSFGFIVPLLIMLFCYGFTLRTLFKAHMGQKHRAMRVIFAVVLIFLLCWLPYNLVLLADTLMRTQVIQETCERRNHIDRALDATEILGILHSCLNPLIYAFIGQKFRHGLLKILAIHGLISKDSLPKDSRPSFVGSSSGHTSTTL
Assay: CXCR2 Tango assay
Type: cell-based
Conditions: mean pIC50 of multiple test results; stimulated with 80 nM hCXCL1; reporter gene blue/green emission ratio; read-out: pIC50 (CXCR2 Tango assay) (converted)
Excerpt: The assay measures ligand-induced activation of the receptor CXCR2 in a stable cell line containing the recombinant human CXCR2 linked to a TEV protease site and a Gal4-VP16 transcription factor (Invitrogen). Ligand binding to the receptor results in the recruitment of arrestin proteins (tagged with protease) to the receptor and triggers the release of a tethered transcription factor. The transcription factor enters the nucleus and activates the transcription of the reporter gene. The ability of a compound to inhibit CXCR2 activation is indirectly assessed by measuring the reporter gene activity.
A vial of cryopreserved cells was removed from liquid nitrogen and rapidly thawed in a water bath at 37° C. with gentle agitation. The contents of the vial were transferred drop-wise into Thawing Medium in a sterile 15 ml conical tube and then centrifuged at 1000 rpm for 4-5 min. Then the cell pellets were resuspended in Assay Medium at a density of ˜200,000 cells/ml. All test compounds were dissolved in DMSO at a concentration of 10 mM and were prepared in 100% DMSO to provide 10 point dose response curves. A reference CXCR2 antagonist was added to wells in row 2, columns 1-5 & 7-11. Exemplified compounds 1-4, 7, 8-10, 13-22, 24-26, 28-30, 32, 33, 36, 37, 40, 42-44. 95-110, 115-118, 120, 121, 125, 126, 129-134, 137, 138, 140, 142, 147-149, 153-157, 159-162, 163-166, 168, 170, 172, 174-180 and 202 were tested using the CXCR2 antagonist sodium 3-chloro-6-(3-(2,3-dichlorophenyl)ureido)-2-sulfamoylphenolate as reference compound (Reference Compound 1) (published International patent application WO2002/079122). […] Test compounds were added to wells in row 2, columns 13-17 & 19-23 and rows 3-15, columns 1-5 & 7-11/13-17 & 19-23 (columns 6 and 18 as positive controls and un-stimulated controls respectively; columns 12 and 24 as cell-free control). Compounds in solution were added to the assay plate (Greiner 781090) using an Echo (Labcyte) concentration-response program (50 nl/well). The cell-free, un-stimulated and positive controls were loaded with 50 nl/well pure DMSO to ensure that the DMSO concentration was constant across the plate for all assays. Using Multi-drop Combi (Thermo) with standard cassette, 50 μl of Assay Medium was added to each well in the cell-free controls (columns 12 and 24); 50 μl of the cell suspension without hCXCL1 (a CXCR2 ligand) was added to each well in column 18 of the plate (˜10,000 cells per well); and 50 μl of the cell suspension with 80 nM hCXCL1 was added to the rest of wells of the plate (˜10,000 cells per well). The cells were incubated overnight at 37° C./5% CO2. 10 μl of 6× substrate mixture (LiveBLAzer™-FRET B/G substrate (CCF4-AM) Cat # K1096 from Invitrogen, Inc.) was added to each well using Multi-drop Combi (Thermo) with small-tube cassette and the plates incubated at room temperature for 2 h in the dark. The plate was finally read on EnVision using one excitation channel (409 nm) and two emission channels (460 nm and 530 nm).
The blue/green emission ratio (460 nm/530 nm) was calculated for each well, by dividing the background-subtracted Blue emission values by the background-subtracted Green emission values. The dose response curve was based on sigmoidal dose-response model. All ratio data was normalized based upon the maximum emission ratio of positive control (hCXCL1) and minimum emission ratio of negative control (DMSO) on each plate. The intrinsic activity (IA) of each compound would be the normalized percentage of its maximum response after curve fitting.
All exemplified compounds (except for Compounds 203 and 204) were tested in the CXCR2 Tango assay or a similar assay described above. The data mentioned below represents a mean pIC 50 value of multiple test results. It is understood that the data illustrated below may have reasonable variation depending on the specific conditions and procedures used by the person conducting the testing.

| SMILES | IC50 [nM] |
| --- | --- |
| CC1=CCC[C@H]1NC(=O)Nc1ccc(Cl)c(S(=O)(=O)[C@]2(C)CCOC2)c1O [Compound 196, 1-(4-chloro-2-hydroxy-3-(((R)-3-methyltetrahydrofuran-3-yl)sulfonyl)phenyl)-3-((R)-2-methylcyclopent-2-en-1-yl)urea] | ≤ 10 |
| CC(C)(CCO)S(=O)(=O)c1c(Cl)ccc(NC(=O)N[C@@H]2CCC=C2Cl)c1O [Compound 6, (R)-1-(4-chloro-2-hydroxy-3-((4-hydroxy-2-methylbutan-2-yl)sulfonyl)phenyl)-3-(2-chlorocyclopent-2-en-1-yl)urea] | ≤ 1 |
| CC(C)(c1ccccn1)S(=O)(=O)c1c(Cl)ccc(NC(=O)NC2CCC=C2Cl)c1O (stereo not shown) [Compound 4, 1-(4-chloro-2-hydroxy-3-((2-(pyridin-2-yl)propan-2-yl)sulfonyl)phenyl)-3-(2-chlorocyclopent-2-en-1-yl)urea, trifluoroacetic acid salt] | ≤ 10 |
| CC1=CCCC1NC(=O)Nc1ccc(Cl)c(S(=O)(=O)C(C)(C)F)c1O (stereo not shown) [Compound 105, 1-(4-chloro-3-((2-fluoropropan-2-yl)sulfonyl)-2-hydroxyphenyl)-3-(2-methylcyclopent-2-en-1-yl)urea] | ≤ 10 |
| CC1=CCC[C@H]1NC(=O)Nc1ccc(Cl)c(S(=O)(=O)C2(F)CCN(C3CCC3)CC2)c1O [Compound 73, (R)-1-(4-chloro-3-((1-cyclobutyl-4-fluoropiperidin-4-yl)sulfonyl)-2-hydroxyphenyl)-3-(2-methylcyclopent-2-en-1-yl)urea, trifluoroacetic acid salt] | ≤ 1 |
| CC1=CCC[C@H]1NC(=O)Nc1ccc(Cl)c(S(=O)(=O)N2CCC(O)CC2)c1O [Compound 89, (R)-1-(4-chloro-2-hydroxy-3-((4-hydroxypiperidin-1-yl)sulfonyl)phenyl)-3-(2-methylcyclopent-2-en-1-yl)urea] | ≤ 1 |
| O=C(O)C(F)(F)F.[2H]C([2H])([2H])N1CCC(C)(S(=O)(=O)c2c(Cl)ccc(NC(=O)N[C@@H]3CCC=C3C)c2O)CC1 [Compound 139, (R)-1-(4-chloro-2-hydroxy-3-((4-methyl-1-(d3-methyl)piperidin-4-yl)sulfonyl)phenyl)-3-(2-methylcyclopent-2-en-1-yl)urea, trifluoroacetic acid salt] | ≤ 10 |
| CC1=CCC[C@H]1NC(=O)Nc1ccc(Cl)c(S(=O)(=O)C2(F)CCOC2)c1O (stereo partly drawn) [Compound 74, 1-(4-chloro-3-((3-fluorotetrahydro-furan-3-yl)sulfonyl)-2-hydroxyphenyl)-3-((R)-2-methylcyclopent-2-en-1-yl)urea] | ≤ 1 |
| CC1=C(F)CCC1NC(=O)Nc1ccc(Cl)c(S(=O)(=O)C(C)C)c1O (stereo not shown) [Compound 17, 1-(4-chloro-2-hydroxy-3-(isopropylsulfonyl)phenyl)-3-(3-fluoro-2-methylcyclopent-2-en-1-yl)urea] | ≤ 10 |
| CCO[C@H]1C[C@@H](S(=O)(=O)c2c(Cl)ccc(NC(=O)N[C@@H]3CCC=C3C)c2O)C1 [Compound 124, (R)-1-(4-chloro-3-((cis-3-ethoxycyclobutyl)sulfonyl)-2-hydroxyphenyl)-3-(2-methylcyclopent-2-en-1-yl)urea] | ≤ 1 |
| CC(C)S(=O)(=O)c1c(Cl)ccc(NC(=O)NC2CCC=C2Cl)c1O (stereo not shown) [Compound 21, 1-(4-chloro-2-hydroxy-3-(isopropylsulfonyl)phenyl)-3-(2-chlorocyclopent-2-en-1-yl)urea] | ≤ 1 |
| CC1=CCCC1NC(=O)Nc1ccc(Cl)c(S(=O)(=O)[C@H]2C[C@@H](O)C2)c1O (stereo partly drawn) [Compound 95, 1-(4-chloro-2-hydroxy-3-((cis-3-hydroxycyclobutyl)sulfonyl)phenyl)-3-(2-methylcyclopent-2-en-1-yl)urea] | ≤ 1 |
| O=C(Nc1ccc(Cl)c(S(=O)(=O)C2(F)CCOC2)c1O)N[C@@H]1CCC=C1Cl (stereo partly drawn) [Compound 167, 1-(4-chloro-3-((3-fluorotetrahydro-furan-3-yl)sulfonyl)-2-hydroxyphenyl)-3-((R)-2-chlorocyclopent-2-en-1-yl)urea] | ≤ 1 |
| CO[C@H]1C[C@@H](S(=O)(=O)c2c(Cl)ccc(NC(=O)NC3CCC=C3Cl)c2O)C1 (stereo partly drawn) [Compound 149, 1-(4-chloro-2-hydroxy-3-((cis-3-methoxycyclobutyl)sulfonyl)phenyl)-3-(2-chlorocyclopent-2-en-1-yl)urea] | ≤ 10 |
| CC1=CCCC1NC(=O)Nc1ccc(Cl)c(S(=O)(=O)[C@H]2CC[C@H](N3CCC3)CC2)c1O (stereo partly shown) [Compound 97, 1-(3-(((1r,4r)-4-(azetidin-1-yl)cyclohexyl)sulfonyl)-4-chloro-2-hydroxyphenyl)-3-(2-methylcyclopent-2-en-1-yl)urea trifluoroacetic acid salt] | ≤ 10 |
| O=C(Nc1ccc(Cl)c(S(=O)(=O)[C@H]2C[C@@H](O)C2)c1O)NC1C=CCC1 (stereo partly drawn) [Compound 164, 1-(4-chloro-2-hydroxy-3-((cis-3-hydroxycyclobutyl)sulfonyl)phenyl)-3-(cyclopent-2-en-1-yl)urea] | ≤ 10 |
| CC1=CCC[C@H]1NC(=O)Nc1ccc(Cl)c(S(=O)(=O)N2CCC(F)(F)C2)c1O [Compound 88, (R)-1-(4-chloro-3-((3,3-difluoropyrrolidin-1-yl)sulfonyl)-2-hydroxyphenyl)-3-(2-methylcyclopent-2-en-1-yl)urea] | ≤ 1 |
| CC1=CCC[C@H]1NC(=O)Nc1ccc(Cl)c(S(=O)(=O)C2(C)CCN(C3CCC3)CC2)c1O [Compound 67, (R)-1-(4-chloro-3-((1-cyclobutyl-4-methylpiperidin-4-yl)sulfonyl)-2-hydroxyphenyl)-3-(2-methylcyclopent-2-en-1-yl)urea, trifluoroacetic acid salt] | ≤ 10 |
| CO[C@H]1C[C@@H](S(=O)(=O)c2c(Cl)ccc(NC(=O)NC3C=CCC3)c2O)C1 (stereo partly drawn) [Compound 147, 1-(4-chloro-2-hydroxy-3-((cis-3-methoxycyclobutyl)sulfonyl)phenyl)-3-(cyclopent-2-en-1-yl)urea] | ≤ 10 |
| O=C(Nc1ccc(Cl)c(S(=O)(=O)[C@H]2CC[C@H](N3CCC3)CC2)c1O)NC1CCC=C1Cl (stereo partly drawn) [Compound 178, 1-(3-((trans-4-(azetidin-1-yl)cyclohexyl)sul-fonyl)-4-chloro-2-hydroxyphenyl)-3-(2-chlorocyclopent-2-en-1-yl)urea, trifluoroacetic acid salt] | ≤ 10 |
| CC(C)(C(F)(F)F)S(=O)(=O)c1c(Cl)ccc(NC(=O)NC2CCC=C2Cl)c1O (stereo not shown) [Compound 2, 1-(4-chloro-2-hydroxy-3-((1,1,1-trifluoro-2-methylpropan-2-yl)sulfonyl)phenyl)-3-(2-chlorocyclopent-2-en-1-yl)urea] | ≤ 1 |
| CN(C)[C@H]1CC[C@@H](S(=O)(=O)c2c(Cl)ccc(NC(=O)NC3CCC=C3Cl)c2O)CC1 (stereo partly drawn) [Compound 130, 1-(4-chloro-3-((cis-4-(dimethylamino)cyclohexyl)sulfonyl)-2-hydroxyphenyl)-3-(2-chlorocyclopent-2-en-1-yl)urea, trifluoroacetic acid salt] | ≤ 1 |
